The source of these data is ChEMBL document CHEMBL5465560, “Selectivity Literature for EUbOPEN Chemogenomic Library” (2024).

The target of experiment [1] is Phosphatidylinositol 4,5-bisphosphate 3-kinase catalytic subunit beta isoform (Homo sapiens) (UniProt P42338). Put plainly: Selectivity interaction (Ambit KINOMEscan and KiNATiv profiling in Jurkat cells) EUB0000090b PIK3CB. The experiment is classed as cell-based. The following applies: at 1 µM.
Experiment [2] deals with T1, Serine/threonine-protein kinase Nek9 (Homo sapiens) (UniProt Q8TD19).
T1 sequence (whole entry): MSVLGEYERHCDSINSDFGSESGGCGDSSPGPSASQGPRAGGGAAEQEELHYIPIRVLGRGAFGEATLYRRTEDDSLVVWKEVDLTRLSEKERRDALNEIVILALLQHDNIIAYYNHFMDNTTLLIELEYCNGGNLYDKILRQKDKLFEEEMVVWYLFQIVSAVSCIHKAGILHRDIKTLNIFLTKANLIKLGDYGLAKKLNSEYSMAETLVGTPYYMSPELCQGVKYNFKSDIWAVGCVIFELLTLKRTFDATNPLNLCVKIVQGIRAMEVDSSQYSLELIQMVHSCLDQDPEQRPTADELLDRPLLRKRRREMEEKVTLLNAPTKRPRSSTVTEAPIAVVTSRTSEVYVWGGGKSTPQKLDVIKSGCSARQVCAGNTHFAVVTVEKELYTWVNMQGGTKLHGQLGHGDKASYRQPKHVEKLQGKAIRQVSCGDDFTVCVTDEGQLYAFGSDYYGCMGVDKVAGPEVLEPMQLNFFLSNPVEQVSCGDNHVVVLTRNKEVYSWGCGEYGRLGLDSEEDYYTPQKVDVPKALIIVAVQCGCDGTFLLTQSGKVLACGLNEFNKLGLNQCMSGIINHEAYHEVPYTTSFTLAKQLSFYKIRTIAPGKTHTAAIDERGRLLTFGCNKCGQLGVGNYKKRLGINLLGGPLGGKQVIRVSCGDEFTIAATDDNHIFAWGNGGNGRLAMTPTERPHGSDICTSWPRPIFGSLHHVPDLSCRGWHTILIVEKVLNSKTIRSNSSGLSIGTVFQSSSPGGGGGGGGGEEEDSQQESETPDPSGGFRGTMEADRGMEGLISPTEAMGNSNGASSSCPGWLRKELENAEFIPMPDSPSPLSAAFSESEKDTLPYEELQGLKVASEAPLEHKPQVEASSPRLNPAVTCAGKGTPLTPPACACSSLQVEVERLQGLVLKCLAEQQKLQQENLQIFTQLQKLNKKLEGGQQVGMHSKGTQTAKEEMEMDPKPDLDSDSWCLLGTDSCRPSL
Kind of experiment: Selectivity interaction (KinomeScan (DiscoverX)) EUB0000092b NEK9. To be noted: at 10 µM.

The test system of experiment [3] is Receptor-type tyrosine-protein kinase FLT3 (Homo sapiens), P36888 [UNDEFINED MUTATION]. Kind of experiment: Selectivity interaction (KinomeScan (DiscoverX)) EUB0001049a FLT3. To be noted: at 1 µM.
Sequence of Receptor-type tyrosine-protein kinase FLT3 (Homo sapiens), P36888 [UNDEFINED MUTATION] (P36888 whole entry, looked up, change not shown): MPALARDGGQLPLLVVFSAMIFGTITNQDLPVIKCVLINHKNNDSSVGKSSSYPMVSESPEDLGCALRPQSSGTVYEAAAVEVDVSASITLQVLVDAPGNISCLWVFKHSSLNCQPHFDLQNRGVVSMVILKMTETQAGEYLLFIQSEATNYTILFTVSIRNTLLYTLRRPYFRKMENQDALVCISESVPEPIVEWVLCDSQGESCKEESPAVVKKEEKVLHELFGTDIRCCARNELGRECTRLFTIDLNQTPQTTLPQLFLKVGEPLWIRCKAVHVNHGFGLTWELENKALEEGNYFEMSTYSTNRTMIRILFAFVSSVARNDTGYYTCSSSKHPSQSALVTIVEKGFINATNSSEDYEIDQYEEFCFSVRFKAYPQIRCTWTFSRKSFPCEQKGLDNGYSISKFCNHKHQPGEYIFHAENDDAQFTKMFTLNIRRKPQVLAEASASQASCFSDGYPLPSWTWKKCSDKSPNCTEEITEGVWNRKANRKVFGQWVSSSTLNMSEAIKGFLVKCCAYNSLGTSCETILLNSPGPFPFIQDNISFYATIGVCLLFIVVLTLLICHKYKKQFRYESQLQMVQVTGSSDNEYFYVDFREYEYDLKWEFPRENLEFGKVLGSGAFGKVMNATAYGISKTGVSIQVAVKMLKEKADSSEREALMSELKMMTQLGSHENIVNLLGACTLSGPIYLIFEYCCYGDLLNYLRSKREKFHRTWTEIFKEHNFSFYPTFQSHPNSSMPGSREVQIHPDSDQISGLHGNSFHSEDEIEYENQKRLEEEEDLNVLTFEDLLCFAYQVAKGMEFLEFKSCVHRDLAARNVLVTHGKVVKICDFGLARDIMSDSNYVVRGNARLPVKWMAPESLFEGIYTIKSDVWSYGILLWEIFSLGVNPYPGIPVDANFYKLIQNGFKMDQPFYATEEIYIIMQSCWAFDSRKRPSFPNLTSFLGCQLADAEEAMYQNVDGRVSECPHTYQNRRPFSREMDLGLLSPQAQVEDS
Experiment [4] has as its target Mitogen-activated protein kinase kinase kinase 20 (Homo sapiens) (UniProt Q9NYL2). Kind of experiment: Selectivity interaction (KinomeScan (DiscoverX)) EUB0000655a MAP3K20. To be noted: at 10 µM.
Experiment [5] addresses Ribosomal protein S6 kinase beta-1 (Homo sapiens, UniProt P23443). Put plainly: Selectivity interaction (KinomeScan (DiscoverX)) EUB0000045b RPS6KB1.
The target in experiment [6] is T2, Cyclin-dependent kinase-like 2 (Homo sapiens) (UniProt Q92772).
T2 sequence (whole entry): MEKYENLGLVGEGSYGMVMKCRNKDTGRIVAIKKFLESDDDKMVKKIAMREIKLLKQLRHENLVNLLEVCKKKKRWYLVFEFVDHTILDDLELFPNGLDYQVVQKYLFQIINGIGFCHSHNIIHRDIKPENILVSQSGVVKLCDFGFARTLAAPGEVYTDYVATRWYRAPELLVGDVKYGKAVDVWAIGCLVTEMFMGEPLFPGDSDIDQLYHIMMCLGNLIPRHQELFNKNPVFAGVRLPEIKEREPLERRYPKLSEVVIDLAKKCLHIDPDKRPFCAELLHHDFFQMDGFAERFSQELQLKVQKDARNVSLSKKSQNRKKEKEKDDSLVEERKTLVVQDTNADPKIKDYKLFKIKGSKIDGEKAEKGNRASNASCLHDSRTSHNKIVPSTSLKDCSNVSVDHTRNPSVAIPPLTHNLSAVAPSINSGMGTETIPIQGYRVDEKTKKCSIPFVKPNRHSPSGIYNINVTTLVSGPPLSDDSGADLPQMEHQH
Put plainly: Selectivity interaction (KinomeScan (DiscoverX)) EUB0000666a CDKL2. The following applies: at 10 µM.

In experiment [7] the target is Serine/threonine-protein kinase PAK 2 (Homo sapiens) (UniProt Q13177). Kind of experiment: Selectivity interaction (SelectScreen profiling (Invitrogen)) EUB0000607a PAK2. The following applies: at 2 µM.
Sequence of Serine/threonine-protein kinase PAK 2 (Homo sapiens) (Q13177 whole entry): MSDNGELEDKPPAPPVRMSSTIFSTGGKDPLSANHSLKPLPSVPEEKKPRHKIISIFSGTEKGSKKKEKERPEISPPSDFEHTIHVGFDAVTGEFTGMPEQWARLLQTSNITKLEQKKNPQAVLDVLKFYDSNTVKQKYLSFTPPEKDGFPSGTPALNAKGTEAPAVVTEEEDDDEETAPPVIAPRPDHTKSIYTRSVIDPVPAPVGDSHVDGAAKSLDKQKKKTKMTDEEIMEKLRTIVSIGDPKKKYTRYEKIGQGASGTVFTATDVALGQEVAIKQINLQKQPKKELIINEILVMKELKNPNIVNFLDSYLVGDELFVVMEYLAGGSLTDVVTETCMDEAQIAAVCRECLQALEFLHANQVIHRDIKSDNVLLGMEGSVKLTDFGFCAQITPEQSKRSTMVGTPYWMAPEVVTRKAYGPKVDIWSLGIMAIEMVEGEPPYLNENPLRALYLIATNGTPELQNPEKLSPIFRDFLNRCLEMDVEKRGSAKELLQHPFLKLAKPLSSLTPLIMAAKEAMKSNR
Experiment [8] has as its system Receptor-type tyrosine-protein kinase FLT3 (Homo sapiens), P36888 [UNDEFINED MUTATION]. Put plainly: Selectivity interaction (KinomeScan (DiscoverX)) EUB0000229b FLT3. To be noted: at 1 µM.
Experiment [9] addresses Serine/threonine-protein kinase OSR1 (Homo sapiens) (UniProt O95747). Kind of experiment: Selectivity interaction (KinomeScan (DiscoverX)) EUB0000595a OXSR1. The following applies: at 10 µM.
For experiment [10], the target named is Ribosomal protein S6 kinase alpha-3 (Homo sapiens, UniProt P51812). Kind of experiment: Selectivity interaction (ActivX KiNativ screen (ex vivo kinase selectivity in human PBMCs)) EUB0001619a RPS6KA3. It counts as cell-based. The following applies: PBMC, at 1 µM.
Sequence of Ribosomal protein S6 kinase alpha-3 (P51812 whole entry): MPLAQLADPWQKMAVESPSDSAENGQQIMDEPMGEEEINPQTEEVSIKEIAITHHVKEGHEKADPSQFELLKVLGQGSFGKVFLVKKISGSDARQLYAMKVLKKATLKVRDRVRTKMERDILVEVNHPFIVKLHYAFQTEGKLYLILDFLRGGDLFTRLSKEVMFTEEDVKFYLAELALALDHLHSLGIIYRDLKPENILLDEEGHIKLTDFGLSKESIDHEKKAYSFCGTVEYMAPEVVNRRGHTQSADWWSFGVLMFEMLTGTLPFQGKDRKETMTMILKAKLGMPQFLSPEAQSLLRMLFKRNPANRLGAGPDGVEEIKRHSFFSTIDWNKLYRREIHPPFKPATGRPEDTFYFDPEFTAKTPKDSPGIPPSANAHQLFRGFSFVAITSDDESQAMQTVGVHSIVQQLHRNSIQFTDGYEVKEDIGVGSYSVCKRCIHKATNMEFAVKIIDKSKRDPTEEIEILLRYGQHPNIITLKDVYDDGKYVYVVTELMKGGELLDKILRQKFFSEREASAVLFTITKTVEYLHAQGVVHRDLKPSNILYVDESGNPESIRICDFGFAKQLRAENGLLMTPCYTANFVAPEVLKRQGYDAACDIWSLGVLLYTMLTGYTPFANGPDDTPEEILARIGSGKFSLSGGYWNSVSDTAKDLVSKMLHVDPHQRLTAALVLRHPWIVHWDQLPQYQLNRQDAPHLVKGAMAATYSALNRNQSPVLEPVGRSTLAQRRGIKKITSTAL

SMILES strings stand for the structures.

Sequence of Ribosomal protein S6 kinase beta-1 (P23443 whole entry, looked up): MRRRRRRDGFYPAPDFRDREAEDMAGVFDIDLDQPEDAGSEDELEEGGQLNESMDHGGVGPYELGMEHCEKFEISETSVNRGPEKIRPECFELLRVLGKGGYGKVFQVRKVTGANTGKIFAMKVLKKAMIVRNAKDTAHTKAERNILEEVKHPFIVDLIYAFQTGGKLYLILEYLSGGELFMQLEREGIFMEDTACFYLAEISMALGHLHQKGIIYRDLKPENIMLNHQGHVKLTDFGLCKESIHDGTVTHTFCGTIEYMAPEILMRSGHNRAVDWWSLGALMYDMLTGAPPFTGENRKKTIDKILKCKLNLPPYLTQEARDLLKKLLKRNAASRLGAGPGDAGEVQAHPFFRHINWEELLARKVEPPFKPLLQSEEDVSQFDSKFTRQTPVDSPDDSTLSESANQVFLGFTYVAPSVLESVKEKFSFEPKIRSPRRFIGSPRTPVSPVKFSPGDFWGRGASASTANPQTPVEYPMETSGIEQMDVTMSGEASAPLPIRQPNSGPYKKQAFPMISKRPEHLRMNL
Sequence of Mitogen-activated protein kinase kinase kinase 20 (Homo sapiens) (Q9NYL2 2-800 limits assumed): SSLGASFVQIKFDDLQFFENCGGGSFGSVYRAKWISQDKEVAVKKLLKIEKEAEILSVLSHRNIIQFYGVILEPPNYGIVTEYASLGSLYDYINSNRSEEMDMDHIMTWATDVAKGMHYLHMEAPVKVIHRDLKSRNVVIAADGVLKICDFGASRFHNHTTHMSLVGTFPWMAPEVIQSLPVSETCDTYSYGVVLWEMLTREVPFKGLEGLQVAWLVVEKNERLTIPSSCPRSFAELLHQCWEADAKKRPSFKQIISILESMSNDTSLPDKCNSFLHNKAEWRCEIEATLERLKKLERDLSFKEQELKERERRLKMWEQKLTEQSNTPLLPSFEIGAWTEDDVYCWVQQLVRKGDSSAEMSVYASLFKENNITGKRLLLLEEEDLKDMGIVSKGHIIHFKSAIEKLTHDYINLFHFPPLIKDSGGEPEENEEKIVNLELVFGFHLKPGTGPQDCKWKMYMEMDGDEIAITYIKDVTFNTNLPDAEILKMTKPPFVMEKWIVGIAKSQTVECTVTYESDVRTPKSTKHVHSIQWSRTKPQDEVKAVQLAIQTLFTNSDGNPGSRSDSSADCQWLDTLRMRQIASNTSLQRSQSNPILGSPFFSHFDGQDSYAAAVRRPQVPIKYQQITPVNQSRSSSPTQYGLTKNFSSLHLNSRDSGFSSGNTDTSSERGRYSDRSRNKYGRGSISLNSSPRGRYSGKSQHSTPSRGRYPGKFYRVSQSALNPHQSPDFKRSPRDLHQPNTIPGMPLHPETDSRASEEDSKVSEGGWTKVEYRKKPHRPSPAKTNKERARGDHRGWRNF
Sequence of Phosphatidylinositol 4,5-bisphosphate 3-kinase catalytic subunit beta isoform (Homo sapiens) (P42338 whole entry, looked up, canonical isoform): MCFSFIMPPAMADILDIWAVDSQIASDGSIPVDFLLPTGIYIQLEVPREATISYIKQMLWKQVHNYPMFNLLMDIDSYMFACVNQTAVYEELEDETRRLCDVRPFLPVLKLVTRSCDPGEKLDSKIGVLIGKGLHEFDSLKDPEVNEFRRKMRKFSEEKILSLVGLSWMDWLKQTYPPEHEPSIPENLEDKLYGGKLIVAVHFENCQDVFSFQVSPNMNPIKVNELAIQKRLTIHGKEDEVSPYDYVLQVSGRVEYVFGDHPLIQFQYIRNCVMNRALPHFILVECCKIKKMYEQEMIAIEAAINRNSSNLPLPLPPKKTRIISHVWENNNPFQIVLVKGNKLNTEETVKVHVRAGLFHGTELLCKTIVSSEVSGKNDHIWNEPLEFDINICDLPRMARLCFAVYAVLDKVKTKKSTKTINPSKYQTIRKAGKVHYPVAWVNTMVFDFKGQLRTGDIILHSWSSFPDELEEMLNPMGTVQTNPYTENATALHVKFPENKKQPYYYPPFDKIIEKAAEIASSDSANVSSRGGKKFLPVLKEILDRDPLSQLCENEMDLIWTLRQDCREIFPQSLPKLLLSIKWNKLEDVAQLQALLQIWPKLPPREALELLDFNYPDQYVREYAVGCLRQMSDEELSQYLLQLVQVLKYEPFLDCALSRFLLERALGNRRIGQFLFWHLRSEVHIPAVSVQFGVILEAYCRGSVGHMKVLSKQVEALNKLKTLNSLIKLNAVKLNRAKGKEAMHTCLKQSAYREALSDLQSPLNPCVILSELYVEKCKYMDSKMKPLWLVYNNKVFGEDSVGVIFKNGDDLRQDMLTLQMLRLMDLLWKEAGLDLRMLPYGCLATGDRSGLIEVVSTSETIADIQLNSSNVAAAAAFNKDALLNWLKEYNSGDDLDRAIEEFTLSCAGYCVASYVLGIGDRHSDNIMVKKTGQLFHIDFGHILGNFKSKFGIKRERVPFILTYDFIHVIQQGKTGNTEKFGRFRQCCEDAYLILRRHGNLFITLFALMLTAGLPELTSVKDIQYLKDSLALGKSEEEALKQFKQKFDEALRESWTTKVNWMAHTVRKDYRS

Take `CN(C)C/C=C/C(=O)Nc1ccc(C(=O)N2CCCC(Nc3ncc(Cl)c(-c4c[nH]c5ccccc45)n3)C2)cc1` (stereo unspecified): in [1], the % of control amounted to 100%.

`CCC(=O)N1CCN(c2ccc(-n3c(=O)ccc4cnc5ccc(-c6cnc7ccccc7c6)cc5c43)cc2C(F)(F)F)CC1` showed a % of control in experiment [2] of 100%.

For `COc1cc(Nc2nc(C)cc(-c3cnn4nc(OC)ccc34)n2)cc(C(F)(F)F)c1`, the % of control in [3] was 96%.

Regarding `CN(C)CCOc1ccc(-c2nc(-c3ccncc3)c(-c3ccc4c(c3)CC/C4=N\O)[nH]2)cc1`, the % of control in experiment [4] worked out at 84%.

For `C=CC(=O)Nc1cc(-n2c(=O)ccc3cnc4ccc(-c5ccc(NS(C)(=O)=O)cc5)cc4c32)ccc1C`, the % of control worked out at 100% in experiment [5] (at 1 µM) and 76% in [5] (at 10 µM).

The compound `O=C(NOC[C@H](O)CO)c1ccc(F)c(F)c1Nc1ccc(I)cc1F` registered a % of control in [6] of 87%.

Regarding `CNC(=O)Nc1ccc(-c2nc(N3CC4CCC(C3)O4)c3cnn(C4CCC5(CC4)OCCO5)c3n2)cc1`, the % of inhibition in experiment [7] worked out at 15%.

With `COc1cc(N(C)c2ccnc3ccc(C(F)(F)F)cc23)cc(OC)c1OC`, the % binding in experiment [8] came out at 93%.

`COCC(=O)NC/C=C/c1ccc2ncnc(Nc3ccc(Oc4ccc(C)nc4)c(C)c3)c2c1` [CP-724714] displayed a % of control in experiment [9] of 100%.

In experiment [10], `N#Cc1cccc(-c2c[nH]c3ncnc(N4CCOCC4)c23)c1` returned a % of inhibition of 6%.
